# Experimental data as given in the supplement of paper PMC8671470.
# What was measured:
# Assay in all cases: cell viability (% survival relative to DMSO control, bortezomib = 0%); higher = less cytotoxic
# Conditions in all cases: 72 h
# KU-812 = test system: KU-812
# How it was run: (§1)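 Fifteen myeloid leukaemia cell lines (10 AML, 5 CML) were seeded at a density titrated to the linear growth range. They went into 384-well plates with compounds pre-printed at 1, 10, 100, 1000 or 10000 nM in duplicate. After 72 h at 37 °C with 5% CO2, viability was read by CellTiter-Glo luminescence. Values are percent survival, with vehicle set to 100% and a 10 µM positive control to 0%, averaged over the duplicates.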
# BV-173 = test system: BV-173
# How it was run: as §1
# K-562 = test system: K-562
# How it was run: as §1
# MOLM-13 = test system: MOLM-13
# How it was run: as §1
SMILES,cell viability (KU-812; 1 nM) [%],cell viability (KU-812; 10 nM) [%],cell viability (KU-812; 100 nM) [%],cell viability (KU-812; 1000 nM) [%],cell viability (KU-812; 10000 nM) [%],cell viability (BV-173; 1 nM) [%],cell viability (BV-173; 10 nM) [%],cell viability (BV-173; 100 nM) [%],cell viability (BV-173; 1000 nM) [%],cell viability (BV-173; 10000 nM) [%],cell viability (K-562; 1 nM) [%],cell viability (K-562; 10 nM) [%],cell viability (K-562; 100 nM) [%],cell viability (K-562; 1000 nM) [%],cell viability (K-562; 10000 nM) [%],cell viability (MOLM-13; 1 nM) [%],cell viability (MOLM-13; 10 nM) [%],cell viability (MOLM-13; 100 nM) [%],cell viability (MOLM-13; 1000 nM) [%],cell viability (MOLM-13; 10000 nM) [%]
CC(/C=C1\SC(=S)N(CC(=O)O)C1=O)=C\c1ccccc1 [Epalrestat],101,91.6,94.9,95.4,111,101,95.1,96.7,106,112,114,102,109,99.5,100,120,106,106,99.1,110
CCOC(=O)[C@@]1(CCCCCCOc2ccc(Cl)cc2)CO1 [Etomoxir],91.3,110,93.5,82.7,60.8,94.8,105,88.8,64.8,57.8,113,95.8,86.5,93.2,71.8,134,99.7,93.1,92,93
Cc1c(-c2ccccc2)oc2c(C(=O)OCCN3CCCCC3)cccc2c1=O.Cl [Flavoxate],92.2,110,111,99,99.2,86.9,100,95.6,94.1,97.9,91,90,89.8,98.8,83.2,92.9,107,95.4,92.6,81.6
O=C(O)CCc1ccc(NCc2cccc(Oc3ccccc3)c2)cc1 [GW9508],89.2,92.4,101,98.8,99.3,92.9,112,97.1,124,135,109,88.8,100,94.2,120,98.9,91.7,92.1,89.6,104
c1ccc2c(c1)OCC(=C1NCCN1)O2 [Idazoxan],105,108,96.5,91.8,105,87.3,108,80.7,89.3,73.2,80,98.1,90.7,100,90.9,97.2,109,95.1,89.5,102
C[C@]12O[C@H](C[C@]1(O)CO)n1c3ccccc3c3c4c(c5c6ccccc6n2c5c31)CNC4=O [Lestaurtinib],96,89.8,39.4,43.1,6,93.9,65.2,28.2,22.5,-0.238,94.2,94.3,64.5,13.5,2.74,78.5,14.4,-0.694,1.23,-0.369
O=C(O)c1nn(Cc2ccc(Cl)cc2Cl)c2ccccc12 [Lonidamine],103,97,112,97,88.8,104,89.4,108,90.1,94.5,94.2,104,118,98.4,82.6,102,113,116,91.3,98.4
C1CCc2nnc(C34CC5CC(CC(C5)C3)C4)n2CC1 [MERCK-544],97.6,95,86.9,78.7,97.9,107,66.3,85.7,94.7,92.2,109,117,89.3,103,129,97.3,126,115,80.7,118
CC(Cc1ccc(O)c(O)c1)C(C)Cc1ccc(O)c(O)c1 (stereo not given) [Masoprocol],102,94.3,102,102,59.4,104,88.1,101,104,5.25,87.2,109,105,95.8,76.7,98.4,106,110,91.2,65.8
CC(C(=O)O)C(=O)O [Methylmalonate],90.1,93.7,97,90.5,85.6,92.5,89.2,104,98.3,96.1,95.3,101,106,95.2,107,107,86.8,124,78.3,89.2
COc1c(C)c2c(c(O)c1C/C=C(\C)CCC(=O)O)C(=O)OC2 [Mycophenolic acid],94.6,94.5,104,51.7,10.9,104,98.8,115,29.9,-0.741,91.3,102,91.5,36.5,13.6,109,109,70.9,13,2.42
C1CCC(C(CC2CCCCN2)C2CCCCC2)CC1.O=C(O)/C=C\C(=O)O (stereo not given) [Perhexiline],96.3,85.1,94.9,99,8.47,87.1,96.1,93.8,98.9,0.141,98.5,97.3,110,103,0.792,83.3,99.8,112,88.2,3.56
